# In ChEMBL document CHEMBL1143783, “In vitro biotransformations of the prostaglandin D2 (DP) antagonist MK-0524 and synthesis of metabolites” (Bioorg Med Chem Lett, 2007):
# System: Plasma
# Assay: Stability in rat plasma
# Format: ADME, cell-free
row,Stability [%],Structure (SMILES)
1,< 5,CS(=O)(=O)c1cc(F)cc2c3c(n(Cc4ccc(Cl)cc4)c12)[C@@H](CC(=O)O)C[C@@H]3O
2,< 5,CS(=O)(=O)c1cc(F)cc2c3c(n(Cc4ccc(Cl)cc4)c12)[C@@H](CC(=O)O)C[C@H]3O
